In the supplement of paper PMC10307832:

Legend:
Experiment in all cases: relative viability (nuclei count vs DMSO), 5 days (fraction); higher = more cells survive
AZD1208 + OSI-027 = compound: N[C@@H]1CCCN(c2c(/C=C3\SC(=O)NC3=O)cccc2-c2ccccc2)C1 [AZD1208] + COc1cccc2cc(-c3nc([C@H]4CC[C@H](C(=O)O)CC4)n4ncnc(N)c34)[nH]c12 [OSI-027] (partner 0.5 µM)
Method in brief: (§1)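 Relative viability was taken as the ratio of nuclei in treated wells to nuclei in vehicle wells. Lung cancer cell lines in 1536-well plates received compounds by pin tool one day after seeding, either one drug alone or a fixed anchor-drug dose plus five library-drug doses (not always all listed) in √10 steps. Nuclei were counted on 4× images after 5 days of treatment, and values are medians of duplicate plates.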

AZD1208 + Alpelisib = compound: N[C@@H]1CCCN(c2c(/C=C3\SC(=O)NC3=O)cccc2-c2ccccc2)C1 [AZD1208] + Cc1nc(NC(=O)N2CCC[C@H]2C(N)=O)sc1-c1ccnc(C(C)(C)C(F)(F)F)c1 [Alpelisib] (partner 2 µM)
Method in brief: as §1

AZD1208 + Vorinostat = compound: N[C@@H]1CCCN(c2c(/C=C3\SC(=O)NC3=O)cccc2-c2ccccc2)C1 [AZD1208] + O=C(CCCCCCC(=O)Nc1ccccc1)NO [Vorinostat] (partner 1 µM)
Method in brief: as §1

XMD14-99 + Dasatinib = compound: CN1CCN(CC1)C2=CC(=C(C=C2)NC3=NC(=C(S3)C(=O)C4=C(C=CC=C4Cl)Cl)N)OC [XMD14-99] + Cc1nc(Nc2ncc(C(=O)Nc3c(C)cccc3Cl)s2)cc(N2CCN(CCO)CC2)n1 [Dasatinib] (partner 0.075 µM)
Method in brief: as §1

Cell Line	relative viability (AZD1208 + OSI-027; first compound 0.08 µM)	relative viability (AZD1208 + OSI-027; first compound 0.253 µM)	relative viability (AZD1208 + OSI-027; first compound 0.8 µM)	relative viability (AZD1208 + OSI-027; first compound 2.53 µM)	relative viability (AZD1208 + OSI-027; first compound 8 µM)	relative viability (AZD1208 + Alpelisib; first compound 0.08 µM)	relative viability (AZD1208 + Alpelisib; first compound 0.253 µM)	relative viability (AZD1208 + Alpelisib; first compound 0.8 µM)	relative viability (AZD1208 + Alpelisib; first compound 2.53 µM)	relative viability (AZD1208 + Alpelisib; first compound 8 µM)	relative viability (AZD1208 + Vorinostat; first compound 0.08 µM)	relative viability (AZD1208 + Vorinostat; first compound 0.253 µM)	relative viability (AZD1208 + Vorinostat; first compound 0.8 µM)	relative viability (AZD1208 + Vorinostat; first compound 2.53 µM)	relative viability (AZD1208 + Vorinostat; first compound 8 µM)	relative viability (XMD14-99 + Dasatinib; first compound 0.08 µM)	relative viability (XMD14-99 + Dasatinib; first compound 0.8 µM)	relative viability (XMD14-99 + Dasatinib; first compound 2.53 µM)	relative viability (XMD14-99 + Dasatinib; first compound 8 µM)
BEN	0.301	0.254	0.278	0.294	0.238	0.876	1.1	0.704	0.673	0.507	0.61	0.584	0.49	0.503	0.427	0.29	0.36	0.25	0.244
EMC-BAC-2	0.364	0.37	0.346	0.296	0.315	0.752	0.74	0.636	0.701	0.62	0.872	0.394	0.447	0.469	0.399	0.311	0.334	0.334	0.286
LU99A	0.295	0.29	0.291	0.264	0.238	0.497	0.481	0.462	0.429	0.345	0.471	0.618	0.481	0.467	0.332	0.655	0.526	0.464	0.305
ABC-1	0.417	0.444	0.487	0.377	0.436	1.14	0.727	0.769	0.903	0.935	1.75	1.08	0.922	0.997	1.02	0.555	0.689	0.483	0.46
NCI-H2170	0.751	0.653	0.636	0.625	0.535	0.747	0.8	0.707	0.567	0.52	0.864	0.923	0.76	0.779	0.5	0.612	0.62	0.601	0.592
NCI-H1299						1.08	1.08	1.07	1.03	1.13									
EBC-1						0.783	0.806	0.885	0.75	0.817									
NCI-H2405	0.52	0.575	0.56	0.607	0.532	0.692	0.727	0.637	0.728	0.723	1.13	1.04	0.965	1.01	0.932	0.21	0.204	0.209	0.173
NCI-H2009	0.63	0.645	0.537	0.569	0.553	1.13	1.17	1.07	1.13	1.13	0.747	0.777	0.698	0.788	0.67	0.263	0.294	0.261	0.164
NCI-H441	0.518	0.535	0.396	0.493	0.352	0.55	0.787	0.617	0.466	0.446	0.742	0.757	0.62	0.616	0.711	0.537	0.493	0.463	0.504
PC-14	0.838	0.881	0.722	0.586	0.621	0.928	1	0.956	0.917	0.931	0.674	0.78	0.719	0.687	0.604	0.254	0.226	0.224	0.11
HARA	0.467	0.497	0.468	0.433	0.277	0.747	0.794	0.671	0.754	0.747	0.489	0.486	0.451	0.515	0.546	0.274	0.249	0.273	0.189
NCI-H2342	0.575	0.664	0.488	0.627	0.574						0.831	0.702	0.604	0.799	0.597	0.29	0.292	0.354	0.285
NCI-H1792	0.679	0.778	0.614	0.607	0.61	0.629	0.742	0.579	0.608	0.535						0.73	0.71	0.631	0.503
ChaGo-K-1	0.579	0.546	0.49	0.421	0.402						0.732	0.831	0.557	0.637	0.608	0.564	0.6	0.51	0.483
HCC-44	0.504	0.496	0.512	0.331	0.485	0.722	0.854	0.744	0.695	0.626	1.2	1.09	1.13	1.11	1.12				
A549						0.676	0.622	0.48	0.687	0.448									
NCI-H1563	0.721	0.708	0.704	0.695	0.596	0.898	0.826	0.954	0.951	0.834						0.452	0.464	0.449	0.447
SW 900	0.678	0.578	0.398	0.439	0.438						0.519	0.638	0.35	0.605	0.512	0.662	0.784	0.702	0.426
IA-LM						0.83	0.617	0.826	0.837	0.569	0.922	1.27	0.778	0.863	0.853				
NCI-H1703						0.338	0.302	0.301	0.31	0.287									
NCI-H1648	0.246	0.244	0.268	0.244	0.274						0.371	0.491	0.298	0.36	0.89				
